Source: the supplement of paper PMC10307832

Key:
Assay in all cases: relative viability (nuclei count vs DMSO), 5 days (fraction); higher = more cells survive
SW 1573 = tested on: SW 1573
How it was run: (§1)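 Cells from lung cancer lines were seeded into 1536-well plates and, one day later, dosed by pin tool. Treatments were either a single drug or a fixed dose of an anchor drug with five library-drug doses (not always all listed) in √10 steps. After 5 days, nuclei were stained in a one-step fixation (final 0.05% Triton X-100, 1% formaldehyde, 1 ug/ml Hoechst) and counted on 4× images, and relative viability is the treated-to-vehicle nuclei ratio, as the median of duplicate plates.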

A-427 = tested on: A-427
How it was run: as §1

NCI-H1993 = tested on: NCI-H1993
How it was run: as §1

LXF-289 = tested on: LXF-289
How it was run: as §1

NCI-H358 = tested on: NCI-H358
How it was run: as §1

NCI-H1734 = tested on: NCI-H1734
How it was run: as §1

NCI-H441 = tested on: NCI-H441
How it was run: as §1

NCI-H520 = tested on: NCI-H520
How it was run: as §1

NCI-H522 = tested on: NCI-H522
How it was run: as §1

COR-L23 = tested on: COR-L23
How it was run: as §1

BEN = tested on: BEN
How it was run: as §1

EKVX = tested on: EKVX
How it was run: as §1

HOP-62 = tested on: HOP-62
How it was run: as §1

NCI-H2347 = tested on: NCI-H2347
How it was run: as §1

NCI-H2023 = tested on: NCI-H2023
How it was run: as §1

HCC-44 = tested on: HCC-44
How it was run: as §1

LC-2-ad = tested on: LC-2-ad
How it was run: as §1

HCC-78 = tested on: HCC-78
How it was run: as §1

ABC-1 = tested on: ABC-1
How it was run: as §1

NCI-H1793 = tested on: NCI-H1793
How it was run: as §1

NCI-H1650 = tested on: NCI-H1650
How it was run: as §1

LOU-NH91 = tested on: LOU-NH91
How it was run: as §1

NCI-H596 = tested on: NCI-H596
How it was run: as §1

Structure (SMILES): Oc1nc(-c2ccc(C(F)(F)F)cc2)nc2c1CSCC2 [XAV939] + Nc1ncn([C@H]2C[C@H](O)[C@@H](CO)O2)c(=O)n1 [Decitabine] (partner 2 µM)
- relative viability (SW 1573; first compound 0.08 µM): 0.559
- relative viability (SW 1573; first compound 0.253 µM): 0.436
- relative viability (SW 1573; first compound 0.8 µM): 0.437
- relative viability (SW 1573; first compound 2.53 µM): 0.453
- relative viability (A-427; first compound 0.08 µM): 0.627
- relative viability (A-427; first compound 0.253 µM): 0.606
- relative viability (A-427; first compound 0.8 µM): 0.527
- relative viability (A-427; first compound 2.53 µM): 0.518
- relative viability (NCI-H1993; first compound 0.08 µM): 0.527
- relative viability (NCI-H1993; first compound 0.253 µM): 0.224
- relative viability (NCI-H1993; first compound 0.8 µM): 0.567
- relative viability (NCI-H1993; first compound 2.53 µM): 0.467
- relative viability (LXF-289; first compound 0.08 µM): 0.388
- relative viability (LXF-289; first compound 0.253 µM): 0.38
- relative viability (LXF-289; first compound 0.8 µM): 0.416
- relative viability (LXF-289; first compound 2.53 µM): 0.345
- relative viability (NCI-H358; first compound 0.08 µM): 0.219
- relative viability (NCI-H358; first compound 0.253 µM): 0.207
- relative viability (NCI-H358; first compound 0.8 µM): 0.235
- relative viability (NCI-H358; first compound 2.53 µM): 0.215
- relative viability (NCI-H1734; first compound 0.08 µM): 0.489
- relative viability (NCI-H1734; first compound 0.253 µM): 0.433
- relative viability (NCI-H1734; first compound 0.8 µM): 0.494
- relative viability (NCI-H1734; first compound 2.53 µM): 0.475
- relative viability (NCI-H441; first compound 0.08 µM): 0.25
- relative viability (NCI-H441; first compound 0.253 µM): 0.253
- relative viability (NCI-H441; first compound 0.8 µM): 0.232
- relative viability (NCI-H441; first compound 2.53 µM): 0.251
- relative viability (NCI-H520; first compound 0.08 µM): 0.54
- relative viability (NCI-H520; first compound 0.8 µM): 0.457
- relative viability (NCI-H520; first compound 2.53 µM): 0.495
- relative viability (NCI-H522; first compound 0.08 µM): 0.629
- relative viability (NCI-H522; first compound 0.253 µM): 0.576
- relative viability (NCI-H522; first compound 0.8 µM): 0.723
- relative viability (NCI-H522; first compound 2.53 µM): 0.607
- relative viability (COR-L23; first compound 0.08 µM): 0.444
- relative viability (COR-L23; first compound 0.253 µM): 0.414
- relative viability (COR-L23; first compound 0.8 µM): 0.424
- relative viability (COR-L23; first compound 2.53 µM): 0.378
- relative viability (BEN; first compound 0.08 µM): 0.73
- relative viability (BEN; first compound 0.253 µM): 0.72
- relative viability (BEN; first compound 0.8 µM): 0.763
- relative viability (BEN; first compound 2.53 µM): 0.597
- relative viability (EKVX; first compound 0.08 µM): 0.329
- relative viability (EKVX; first compound 0.253 µM): 0.336
- relative viability (EKVX; first compound 0.8 µM): 0.356
- relative viability (EKVX; first compound 2.53 µM): 0.262
- relative viability (HOP-62; first compound 0.08 µM): 0.226
- relative viability (HOP-62; first compound 0.253 µM): 0.193
- relative viability (HOP-62; first compound 0.8 µM): 0.223
- relative viability (HOP-62; first compound 2.53 µM): 0.157
- relative viability (NCI-H2347; first compound 0.08 µM): 0.62
- relative viability (NCI-H2347; first compound 0.253 µM): 0.586
- relative viability (NCI-H2347; first compound 0.8 µM): 0.607
- relative viability (NCI-H2347; first compound 2.53 µM): 0.517
- relative viability (NCI-H2023; first compound 0.08 µM): 0.207
- relative viability (NCI-H2023; first compound 0.253 µM): 0.232
- relative viability (NCI-H2023; first compound 0.8 µM): 0.212
- relative viability (NCI-H2023; first compound 2.53 µM): 0.228
- relative viability (HCC-44; first compound 0.08 µM): 0.969
- relative viability (HCC-44; first compound 0.253 µM): 0.861
- relative viability (HCC-44; first compound 0.8 µM): 0.928
- relative viability (HCC-44; first compound 2.53 µM): 0.878
- relative viability (LC-2-ad; first compound 0.08 µM): 0.786
- relative viability (LC-2-ad; first compound 0.253 µM): 0.719
- relative viability (LC-2-ad; first compound 0.8 µM): 0.872
- relative viability (LC-2-ad; first compound 2.53 µM): 0.733
- relative viability (HCC-78; first compound 0.08 µM): 0.679
- relative viability (HCC-78; first compound 0.253 µM): 0.655
- relative viability (HCC-78; first compound 0.8 µM): 0.732
- relative viability (HCC-78; first compound 2.53 µM): 0.642
- relative viability (ABC-1; first compound 0.253 µM): 1.27
- relative viability (ABC-1; first compound 0.8 µM): 0.975
- relative viability (ABC-1; first compound 2.53 µM): 0.655
- relative viability (NCI-H1793; first compound 0.08 µM): 0.506
- relative viability (NCI-H1793; first compound 0.253 µM): 0.403
- relative viability (NCI-H1793; first compound 0.8 µM): 0.549
- relative viability (NCI-H1793; first compound 2.53 µM): 0.416
- relative viability (NCI-H1650; first compound 0.08 µM): 0.407
- relative viability (NCI-H1650; first compound 0.253 µM): 0.445
- relative viability (NCI-H1650; first compound 0.8 µM): 0.361
- relative viability (NCI-H1650; first compound 2.53 µM): 0.439
- relative viability (LOU-NH91; first compound 0.08 µM): 0.806
- relative viability (LOU-NH91; first compound 0.253 µM): 0.75
- relative viability (LOU-NH91; first compound 0.8 µM): 0.819
- relative viability (LOU-NH91; first compound 2.53 µM): 0.801
- relative viability (NCI-H596; first compound 0.08 µM): 1
- relative viability (NCI-H596; first compound 0.253 µM): 0.976
- relative viability (NCI-H596; first compound 0.8 µM): 1.03
- relative viability (NCI-H596; first compound 2.53 µM): 0.928
